Structures are written as SMILES. Structures can show the parent of a compound that is named as a salt.

The record followed here is patent publication US8802664B2 (Bioproject, priority 2010, dated 2014).

On to `CN1CCC(OC(c2nc3ccccc3s2)c2ccccc2F)CC1` (stereo not drawn) (as salt: oxalate) [Example 6, 2-[(2-fluorophenyl)(1-methylpiperidin-4-yloxy)methyl]benzothiazole], for which the melting point (usually the temperature, or range, at which the solid turns liquid) was in the range of 178 to 179 °C.

On to `CN1CCC(OC(c2cccc(-c3ccccc3CO)c2)c2nc3ccccc3s2)CC1` (stereo not drawn) (as salt: oxalate) [Example 127, {3′-[benzothiazol-2-yl(1-methylpiperidin-4-yloxy)methyl]biphenyl-2-yl}methanol], for which the melting point lay in the range of 206 to 207 °C.

`CN1CCC(OC(c2cc(C(F)(F)F)cc(C(F)(F)F)c2)c2nc3ccccc3[nH]2)CC1` (stereo not drawn) (as salt: oxalate) [Example 547] yielded a melting point of 130 °C.

As to `CN1CCC(NC(c2cccc(OCc3cccc(F)c3)c2)c2nc3ccccc3[nH]2)CC1` (stereo not drawn) (as salt: oxalate) [Example 105, {(1H-benzimidazol-2-yl)[3-(3-fluorobenzyloxy)phenyl]methyl}(1-methylpiperidin-4-yl)amine], the melting point was 116 °C.

As to `CN1CCC(OC(c2cccc(OCc3ccncc3)c2)c2nc3ccccc3s2)CC1` (stereo not drawn) (as salt: oxalate) [Example 265, 2-{(1-methylpiperidin-4-yloxy)[3-(pyridin-4-ylmethoxy)phenyl]methyl}benzothiazole], the melting point was determined as 101 °C.

`CN1CCC(OC(c2cccc(CCCCNC(=N)N)c2)c2nc3ccccc3s2)CC1` (stereo not drawn) (as salt: hydrochloride) [Example 374, N-(4-{3-[benzothiazol-2-yl(1-methylpiperidin-4-yloxy)methyl]phenyl}butyl)guanidine] gave a melting point of 120 °C.

`CN1CCC(OC(c2ccc3c(c2)OCO3)c2nc3ccccc3s2)CC1` (stereo not drawn) (as salt: hydrochloride) [Example 20, 2-[benzo[1,3]dioxol-5-yl(1-methylpiperidin-4-yloxy)methyl]benzothiazole] returned a melting point of 110 °C.

Consider `CN1CCC(OC(c2cccc(C#CCCCCN)c2)c2nc3ccccc3n2C)CC1` (stereo not drawn) (as salt: oxalate) [Example 480, 6-{3-[(1-methyl-1H-benzimidazol-2-yl)(1-methylpiperidin-4-yloxy)methyl]phenyl}hex-5-ynylamine], for which the melting point worked out at 113 °C.

`CN1CCC(NC(c2cccc(OCCCC3(C)OCCO3)c2)c2nc3ccccc3[nH]2)CC1` (stereo not drawn) (as salt: oxalate) [Example 174, ((1H-benzimidazol-2-yl)-{3-[3-(2-methyl-[1,3]dioxolan-2-yl)-propoxy]phenyl}methyl)(1-methylpiperidin-4-yl)amine] yielded a melting point of 120 °C.

The compound `C=CCCCOc1cccc(C(OC2CCN(C)CC2)c2nc3ccccc3s2)c1` (stereo not drawn) (as salt: oxalate) [Example 168, 2-[(1-methylpiperidin-4-yloxy)(3-pent-4-enyloxy-phenyl)methyl]benzothiazole] yielded a melting point of 75 °C.

`CN1CCC(NC(c2cccc(-c3ccccc3)c2)c2nc3ccccc3s2)CC1` (stereo not drawn) (as salt: oxalate) [Example 102, (benzothiazol-2-ylbiphenyl-3-ylmethyl)(1-methylpiperidin-4-yl)amine] registered a melting point of 112 °C.

As for `CN1CCC(OC(c2cccc(-c3ccc(F)cc3)c2)c2nc3ccccc3[nH]2)CC1` (stereo not drawn) (as salt: oxalate) [Example 115, 2-[(4′-fluorobiphenyl-3-yl)(1-methylpiperidin-4-yloxy)methyl]-1H-benzimidazole], the melting point stood at 100 °C.

`CN1CCC(OC(c2cccc(OCCCCN3CCOCC3)c2)c2nc3ccccc3[nH]2)CC1` (stereo not drawn) (as salt: oxalate) [Example 332, 2-{(1-methylpiperidin-4-yloxy)[3-(4-morpholin-4-yl-butoxy)phenyl]methyl}-1H-benzimidazole] yielded a melting point of 85 °C.

Compound `CN1CCC(OC(c2cccc(OCCCCN)c2)c2nc3ccccc3[nH]2)CC1` (stereo not drawn) (as salt: oxalate) [Example 331, 4-{3-[(1H-benzimidazol-2-yl)(1-methylpiperidin-4-yloxy)methyl]phenoxy}butylamine] yielded a melting point of 115 °C.

Consider `CN1CCC(OC(c2cccc(C#CCNC(=N)N)c2)c2nc3ccccc3s2)CC1` (stereo not drawn) (as salt: hydrochloride) [Example 373, N-(3-{3-[benzothiazol-2-yl(1-methylpiperidin-4-yloxy)methyl]phenyl}prop-2-ynyl)guanidine], for which the melting point was 125 °C.

For the compound `CN1CCC(OC(c2cccc(OC(F)(F)F)c2)c2nc3ccccc3[nH]2)CC1` (stereo not drawn) (as salt: oxalate) [Example 280, 2-[(1-methylpiperidin-4-yloxy)(3-trifluoromethoxy-phenyl)methyl]-1H-benzimidazole], the melting point was 172 °C.

`CN1CCC(OC(c2nc3ccccc3s2)c2cc(OC(F)(F)F)ccc2F)CC1` (stereo not drawn) (as salt: oxalate) [Example 526] displayed a melting point of 95 °C.

Take `CN1CCC(OC(c2cccc(OC3CC4CNCC4C3)c2)c2nc3ccccc3s2)CC1` (stereo not drawn) (as salt: oxalate) [Example 466]: the melting point was 70 °C.

As for `CN1CCC(OC(c2cccc(OCCCN)c2)c2nc3ccccc3s2)CC1` (stereo not drawn) (as salt: oxalate) [Example 311, 3-{3-[benzothiazol-2-yl(1-methylpiperidin-4-yloxy)methyl]phenoxy}propylamine], the melting point was found to be 120 °C.

In turn, `CN1CCC(OC(c2nc3ccccc3[nH]2)c2cc(I)ccc2F)CC1` (stereo not drawn) (as salt: oxalate) [Example 425, 2-[(2-fluoro-5-iodo-phenyl)(1-methylpiperidin-4-yloxy)methyl]-1H-benzimidazole] gave a melting point of 175 °C.

Consider `CN1CCC(OC(c2cccc(-c3ccccc3Cl)c2)c2nc3ccccc3[nH]2)CC1` (stereo not drawn) (as salt: oxalate) [Example 121, 2-[(2′-Chlorobiphenyl-3-yl)(1-methylpiperidin-4-yloxy)methyl]-1H-benzimidazole], for which the melting point was determined as 130 °C.

Compound `CN1CCC(OC(c2cccc(CCCCCCN)c2)c2nc3ccccc3s2)CC1` (stereo not drawn) (as salt: oxalate) [Example 325, 6-{3-[benzothiazol-2-yl(1-methylpiperidin-4-yloxy)methyl]phenyl}hexylamine] returned a melting point of 115 °C.

For the compound `CN1CCC(OC(c2cccc(N3CCCC3CO)c2)c2nc3ccccc3s2)CC1` (stereo not drawn) (as salt: oxalate) [Example 324, (1-{3-[benzothiazol-2-yl(1-methylpiperidin-4-yloxy)methyl]phenyl}pyrrolidin-2-yl)methanol], the melting point was determined as 99 °C.

`COCCOc1cccc(C(OC2CCN(C)CC2)c2nc3ccccc3s2)c1` (stereo not drawn) (as salt: oxalate) [Example 277, 2-[[3-(2-methoxyethoxy)phenyl](1-methylpiperidin-4-yloxy)methyl]benzothiazole] registered a melting point of 80 °C.

As for `CN1CCC(OC(c2nc3ccccc3[nH]2)c2cc(O)ccc2F)CC1` (stereo not drawn) (as salt: oxalate) [Example 487], the melting point came out at 135 °C.

As to `Cc1cccc(C(NC2CCN(C)CC2)c2nc3ccccc3s2)c1` (stereo not drawn) (as salt: oxalate) [Example 21, [(benzothiazol-2-yl)(m-tolyl)methyl](1-methylpiperidin-4-yl)amine], the melting point came out at 127 °C.

Compound `CN1CCC(OC(c2ccc(Cl)cc2)c2nc3ccccc3s2)CC1` (stereo not drawn) (as salt: oxalate) [Example 4, 2-[(4-chlorophenyl)(1-methylpiperidin-4-yloxy)methyl]benzothiazole] came in with a melting point of 147 to 148 °C.

`CN1CCC(OC(c2cccc(F)c2)c2nc3ccccc3s2)CC1` (stereo not drawn) (as salt: oxalate) [Example 5]: the melting point was 167 to 170 °C.

In turn, `CN1CCC(OC(c2cccc(OCCCO)c2)c2nc3ccccc3s2)CC1` (stereo not drawn) (as salt: oxalate) [Example 258, 3-{3-[benzothiazol-2-yl(1-methylpiperidin-4-yloxy)methyl]phenoxy}propan-1-ol] showed a melting point of 79 °C.

Consider `COc1cccc(COc2cccc(C(NC3CCN(C)CC3)c3nc4ccccc4[nH]3)c2)c1` (stereo not drawn) (as salt: oxalate) [Example 125, {(1H-benzimidazol-2-yl)[3-(3-methoxybenzyloxy)phenyl]methyl}(1-methylpiperidin-4-yl)amine], for which the melting point amounted to 135 °C.

`CN1CCC(OC(c2cccc(I)c2)c2nc3ccccc3s2)CC1` (stereo not drawn) (as salt: oxalate) [Example 41, 2-[(3-iodophenyl)(1-methylpiperidin-4-yloxy)methyl]benzothiazole] yielded a melting point of 165 to 170 °C.

Turning to `CN1CCC(OC(c2cccc(N3CCC(F)C3)c2)c2nc3ccccc3s2)CC1` (stereo not drawn) (as salt: oxalate) [Example 454], the melting point is 103 °C.

As to `CN1CCC(OC(c2cccc(SCCCCN)c2)c2nc3cc(F)c(F)c(F)c3[nH]2)CC1` (stereo not drawn) (as salt: oxalate) [Example 493], the melting point amounted to 110 °C.

`CN1CCC(OC(c2cccc(N3CCCC3CO)c2)c2nc3ccccc3s2)CC1` (stereo not drawn) (as salt: oxalate) [Example 323, (1-{3-[benzothiazol-2-yl(1-methylpiperidin-4-yloxy)methyl]phenyl}pyrrolidin-2-yl)methanol] gave a melting point of 76 °C.

On to `Cc1cccc(C(OC2CCN(C)CC2)c2nc3ccccc3s2)c1` (stereo not drawn) (as salt: oxalate) [Example 8, 2-[(1-methylpiperidin-4-yloxy)(m-tolyl)methyl]benzothiazole], for which the melting point came to 177 °C.

Take `CN1CCC(OC(c2cccc(N3CC4CN(C)CC4C3)c2)c2nc3ccccc3s2)CC1` (stereo not drawn) (as salt: oxalate) [Example 485]: the melting point came to 131 °C.

The compound `CN1CCC(OC(c2ccc3cc[nH]c3c2)c2nc3ccccc3[nH]2)CC1` (stereo not drawn) (as salt: oxalate) [Example 550, 2-[(1H-indol-6-yl)(1-methylpiperidin-4-yloxy)methyl]-1H-benzimidazole] showed a melting point of 170 °C.

Compound `CCCCOc1cccc(C(OC2CCN(C)CC2)c2nc3ccccc3s2)c1` (stereo not drawn) (as salt: oxalate) [Example 92, 2-[(3-butoxyphenyl)(1-methylpiperidin-4-yloxy)methyl]benzothiazole] yielded a melting point of 135 °C.

Turning to `COc1ccc(C(OC2CCN(C)CC2)c2nc3ccccc3s2)cc1` (stereo not drawn) (as salt: hydrochloride) [Example 14, 2-[(4-methoxyphenyl)(1-methylpiperidin-4-yloxy)methyl]benzothiazole], the melting point was found to be 72 °C.
